Data reported in patent US6399634B1, “Benzothiophene compounds, compositions, and methods” (Eli Lilly and Company, priority 1994, dated 2002).
Where “and” joins values, the source holds several entries; their conditions need not be identical. Identical values can stand only once. Counter-ions that a name gives are not always drawn.

Columns and labels:
[1] = test system: ovariectomized (OVX) rats; assay: Uterine wet weight in ovariectomized rat post-menopausal model, 4 days of dosing; format: in vivo, Sprague Dawley rats; conditions: oral; for Uterine Weight (% increase vs. OVX): daily for 4 days
Description: In the examples illustrating the methods, a post-menopausal model was used in which effects of different treatments upon circulating lipids were determined.
(§1) Seventy-five day old female Sprague Dawley rats (weight range of 200 to 225 g) were obtained from Charles River Laboratories (Portage, Mich.). The animals were either bilaterally ovariectomized (OVX) or exposed to a Sham surgical procedure at Charles River Laboratories, and then shipped after one week. Upon arrival, they were housed in metal hanging cages in groups of 3 or 4 per cage and had ad libitum access to food (calcium content approximately 0.5%) and water for one week. Room temperature was maintained at 22.2°±1.7° C. with a minimum relative humidity of 40%. The photoperiod in the room was 12 hours light and 12 hours dark.
(§2) Dosing Regimen Tissue Collection. After a one week acclimation period (therefore, two weeks post-OVX) daily dosing with test compound was initiated. 17α-ethynyl estradiol or the test compound were given orally, unless otherwise stated, as a suspension in 1% carboxymethylcellulose or dissolved in 20% cyclodextrin. Animals were dosed daily for 4 days. Following the dosing regimen, animals were weighed and anesthetized with a ketamine: Xylazine (2:1, V:V) mixture and a blood sample was collected by cardiac puncture. The animals were then sacrificed by asphyxiation with CO2, the uterus was removed through a midline incision, and a wet uterine weight was determined.

[2] = test system: Uterine Eosinophil Peroxidase (EPO); assay: Uterine Eosinophil Peroxidase (EPO) Assay on uteri of dosed OVX rats; format: in vivo, Sprague Dawley rats; set-up: unit not given here
Text: as §1, §2
Uterine Eosinophil Peroxidase (EPO) Assay. Uteri were kept at 4° C. until time of enzymatic analysis. The uteri were then homogenized in 50 volumes of 50 mM Tris buffer (pH−8.0) containing 0.005% Triton X-100. Upon addition of 0.01% hydrogen peroxide and 10 mM o-phenylenediamine (final concentrations) in Tris buffer, increase in absorbance was monitored for one minute at 450 nm. The presence of eosonophils in the uterus is an indication of estrogenic activity of a compound. The maximal velocity of a 15 second interval was determined over the initial, linear portion of the reaction curve.

[3] = test system: ovariectomized (OVX) rats; assay: Serum cholesterol analysis in ovariectomized rats, 4 days of dosing; format: in vivo, Sprague Dawley rats; conditions: oral; for Serum Cholesterol (% decrease vs. OVX): daily for 4 days
Text: as §1, §2
Cholesterol Analysis. Blood samples were allowed to clot at room temperature for 2 hours, and serum was obtained following centrifugation for 10 minutes at 3000 rpm. Serum cholesterol was determined using a Boehringer Mannheim Diagnostics high performance cholesterol assay. Briefly the cholesterol was oxidized to cholest-4-en-3-one and hydrogen peroxide. The hydrogen peroxide was then reacted with phenol and 4-aminophenazone in the presence of peroxidase to produce a p-quinone imine dye, which was read spectrophotemetrically at 500 nm. Cholesterol concentration was then calculated against a standard curve. The entire assay was automated using a Biomek Automated Workstation.

[4] = test system: ovariectomized (OVX) rats; assay: Osteoporosis Test Procedure: femur bone density in OVX rats after 35 days of dosing; format: in vivo, Sprague Dawley rats; conditions: for Bone Density: mean ± SEM
Text: Seventy-five day old female Sprague Dawley rats (weight range of 200 to 225 g) were obtained from Charles River Laboratories (Portage, Mich.). The animals were either bilaterally ovariectomized (OVX) or exposed to a Sham surgical procedure at Charles River Laboratories, and then shipped after one week. Upon arrival, they were housed in metal hanging cages in groups of 3 or 4 per cage and had ad libitum access to food (calcium content approximately 0.5%) and water for one week. Room temperature was maintained at 22.2°±1.7° C. with a minimum relative humidity of 40%. The photoperiod in the room was 12 hours light and 12 hours dark. Following the General Preparation Procedure, infra, the rats were treated daily for 35 days (6 rats per treatment group) and sacrificed by decapitation on the 36th day. The 35 day time period was sufficient to allow maximal reduction in bone density, measured as described herein. At the time of sacrifice, the uteri were removed, dissected free of extraneous tissue, and the fluid contents were expelled before determination of wet weight in order to confirm estrogen deficiency associated with complete ovariectomy. […] The uteri were then placed in 10% neutral buffered formalin to allow for subsequent histological analysis. The right femurs were excised and scanned at the distal metaphysis 1 mm from the patellar groove with single photon absorptiometry. Results of the densitometer measurements represent a calculation of bone density as a function of the bone mineral content and bone width. In accordance with the above procedures, compounds of the present invention and ethynyl estradiol (EE2) in 20% hydroxypropyl β-cyclodextrin were orally administered to test animals. Data presented in Tables 5 and 6 below are the results of these treatments compared to intact and ovariectomized test animals. Results are reported as the mean±the standard error of the mean.

[5] = test system: MCF-7 breast adenocarcinoma cells; assay: MCF-7 Proliferation Assay (tritiated thymidine); format: cell-based; conditions: Homo sapiens, MCF7; MCF-7 cells, 48 hours with drug, tritiated thymidine pulse 4 hours
Description: MCF-7 breast adenocarcinoma cells (ATCC HTB 22) were maintained in MEM (minimal essential medium, phenol red-free, Sigma, St. Louis, Mo.) supplimented with 10% fetal bovine serum (FBS) (V/V), L-glutamine (2 mM), sodium pyruvate (1 mM), HEPES {(N-[2-hydroxyethyl]piperazine-N′-[2-ethanesulfonic acid]10 mM}, non-essential amino acids and bovine insulin (1 ug/mL) (maintenance medium). Ten days prior to assay, MCF-7 cells were switched to maintenance medium supplemented with 10% dextrancoated charcoal stripped fetal bovine serum (DCC-FBS) assay medium) in place of 10% FBS to deplete internal stores of steroids. MCF-7 cells were removed from maintenance flasks using cell dissociation medium (Ca++/Mg++ free HBSS (phenol red-free) supplemented with 10 mM HEPES and 2 mM EDTA). Cells were washed twice with assay medium and adjusted to 80,000 cells/mL. Approximately 100 μL (8,000 cells) were added to flat-bottom microculture wells (Costar 3596) and incubated at 37° C. in a 5% CO2 humidified incubator for 48 hours to allow for cell adherence and equilibration after transfer. Serial dilutions of drugs or DMSO as a diluent control were prepared in assay medium and 50 μL transferred to triplicate microcultures followed by 50 μL assay medium for a final volume of 200 μL. After an additional 48 hours at 37° C. in a 5% CO2 humidified incubator, microcultures were pulsed with tritiated thymidine (1 uCi/well) for 4 hours. Cultures were terminated by freezing at −70° C. for 24 hours followed by thawing and harvesting of microcultures using a Skatron Semiautomatic Cell Harvester. Samples were counted by liquid scintillation using a Wallac BetaPlace β counter. Results in Table 7 below show the IC50 for certain compounds of the present invention.

[6] = female, Sprague Dawley, rat, in vivo, po, 0.1 mg/kg, 4 days
[7] = female, Sprague Dawley, rat, in vivo, po, 1 mg/kg, 4 days
[8] = female, Sprague Dawley, rat, in vivo, po, 10 mg/kg, 4 days

COc1ccc(-c2sc3cc(OC)ccc3c2Cc2ccc(OCCN3CCCCC3)cc2)cc1 [(p)-Ex16, [6-Methoxy-2-(4-Methoxyphenyl)Benzo[B]Thien-3-Yl][4-[2-(1-Piperidinyl)Ethoxy]Phenyl]Methane Hydrochloride]
Uterine Weight (% increase vs. OVX) ([1]; dose 0.1 mg/kg): −13.5% | Uterine Weight (% increase vs. OVX) ([1]; dose 1.0 mg/kg): −13.7% | Uterine Weight (% increase vs. OVX) ([1]; dose 10.0 mg/kg): −24.6% | Uterine EPO (V. max) [2, 6]: 5.8 | Uterine EPO (V. max) [2, 7]: 5.4 | Uterine EPO (V. max) [2, 8]: 6.2 | Serum Cholesterol (% decrease vs. OVX) ([3]; dose 0.1 mg/kg): 26.8% | Serum Cholesterol (% decrease vs. OVX) ([3]; dose 1.0 mg/kg): 59.4% | Serum Cholesterol (% decrease vs. OVX) ([3]; dose 10.0 mg/kg): 72.3% | Bone Density ([4]; Table 5, oral, 0.01 mg/kg, OVX control 26.18, intact control 70.22, * P <= 0.05): 26.78 ± 4.98 mg/cm/cm | Bone Density ([4]; Table 5, oral, 0.1 mg/kg, OVX control 26.18, intact control 70.22, * P <= 0.05): 43.30 ± 7.86 mg/cm/cm | Bone Density ([4]; Table 5, oral, 1.0 mg/kg, OVX control 26.18, intact control 70.22, * P <= 0.05): 33.62 ± 5.87 mg/cm/cm | IC50 [5]: 50 nM

C#C[C@]1(O)CC[C@H]2[C@@H]3CCc4cc(O)ccc4[C@H]3CC[C@@]21C [EE2, 17α-ethynyl estradiol, reference compound]
Effect on uterine weight compared to ovariectomized test animals (in words) ([1]; EE2 at 0.1 mg/Kg/day): substantially greater than the uterine weight of ovariectomized test animals | Uterine Weight (% increase vs. OVX) ([1]; dose 0.1 mg/kg): 111.5% and 178.3% | Uterine EPO (V. max) ([2]; OVX rats, oral, daily for 4 days, dose 0.1 mg/kg): 246.0 and 173.3 | Effect on serum cholesterol compared to ovariectomized control animals (in words) ([3]; EE2 at 0.1 mg/Kg/day): decrease in serum cholesterol | Serum Cholesterol (% decrease vs. OVX) ([3]; dose 0.1 mg/kg): 89.5% and 91.8% | Bone Density ([4]; Table 5, oral, 100 μg/kg, OVX control 26.18, intact control 70.22, * P <= 0.05): 47.94 ± 3.71 mg/cm/cm | Bone Density ([4]; Table 6, oral, 100 μg/kg, OVX control 32.46, intact control 81.27, * P <= 0.05): 47.31 ± 6.42 mg/cm/cm | Prevention of femur bone loss caused by ovariectomy (in words) ([4]; oral): prevented this loss

C[C@]12CC[C@@H]3c4ccc(O)cc4CC[C@H]3[C@@H]1CCC2=O [Estrone, reference compound]
IC50 [5]: 1 nM

O=C(Oc1ccc(-c2sc3cc(OC(=O)c4ccccc4)ccc3c2Cc2ccc(OCCN3CCCCC3)cc2)cc1)c1ccccc1 [(s)-Ex21, [6-Benzoyloxy-2-(4-Benzoyloxyphenyl)Benzo[B]Thien-3-Yl][4-[2-{1-Piperidinyl}Ethoxy]Phenyl]Methane]
Uterine Weight (% increase vs. OVX) ([1]; dose 0.1 mg/kg): −19.6% | Uterine Weight (% increase vs. OVX) ([1]; dose 1.0 mg/kg): −28.7% | Uterine Weight (% increase vs. OVX) ([1]; dose 10.0 mg/kg): −26.6% | Uterine EPO (V. max) [2, 6]: 1.8 | Uterine EPO (V. max) [2, 7]: 2.6 | Uterine EPO (V. max) [2, 8]: 2.3 | Serum Cholesterol (% decrease vs. OVX) ([3]; dose 0.1 mg/kg): 66.2% | Serum Cholesterol (% decrease vs. OVX) ([3]; dose 1.0 mg/kg): 63.4% | Serum Cholesterol (% decrease vs. OVX) ([3]; dose 10.0 mg/kg): 64.4% | IC50 [5]: 0.01 nM
